Reference: ChEMBL document CHEMBL4145533, “6,7-Dimorpholinoalkoxy quinazoline derivatives as potent EGFR inhibitors with enhanced antiproliferative activities against tumor cells” (Eur J Med Chem, 2018)
The source made the active and inactive calls. The calls are words filed in the database; no cut-off is given here.

Experiments:
A549 [1] = assay: Induction of apoptosis in human A549 cells assessed as early apoptotic cells at 2 uM after 48 hrs by Annexin V-FITC/propidium iodide satining based FACS analysis (reference value: 2.78%); type: functional
[2] = molecular target: Epidermal growth factor receptor (Homo sapiens, UniProt P00533, L858R); assay: Inhibition of EGFR L858R mutant (unknown origin) using ULight-poly GT as substrate preincubated for 120 mins followed by substrate addition measured after 2 hrs by spectrophotometric method
A549 [3] = assay: Induction of apoptosis in human A549 cells after 48 hrs by Annexin V-FITC/propidium iodide satining based FACS analysis; type: functional, cell-based
A549 [4] = assay: Antiproliferative activity against human A549 cells harboring wild type EGFR/K-ras mutant after 72 hrs by MTT assay; type: functional, cell-based; conditions: A549, 72 h
A549 [5] = assay: Induction of apoptosis in human A549 cells assessed as late apoptotic cells at 2 uM after 48 hrs by Annexin V-FITC/propidium iodide satining based FACS analysis (reference value: 1.21%); type: functional
A549 [6] = assay: Induction of apoptosis in human A549 cells assessed as necrotic cells at 4 uM after 48 hrs by Annexin V-FITC/propidium iodide satining based FACS analysis (reference value: 0.14%); type: functional
A549 [7] = assay: Induction of apoptosis in human A549 cells assessed as early apoptotic cells at 1 uM after 48 hrs by Annexin V-FITC/propidium iodide satining based FACS analysis (reference value: 2.78%); type: functional
A549 [8] = assay: Induction of apoptosis in human A549 cells assessed as late apoptotic cells at 3 uM after 48 hrs by Annexin V-FITC/propidium iodide satining based FACS analysis (reference value: 1.21%); type: functional
A549 [9] = assay: Effect on total Erk1/2 protein expression in human A549 cells at 0.2 to 5 uM after 2 hrs by Western blot analysis; type: ADME, cell-based; conditions: a549, 2 h
[10] = molecular target: T1, Epidermal growth factor receptor (Homo sapiens, UniProt P00533); assay: Inhibition of EGF-induced EGFR phosphorylation at Y1086 residue in human A549 cells at 0.2 uM preincubated for 2 hrs followed by EGF stimulation measured after 10 mins by Western blot analysis; type: cell-based
A549 [11] = assay: Cell cycle arrest in human A549 cells assessed as accumulation at G0/G1 phase at 0.5 uM after 48 hrs by propidium iodide satining based FACS analysis (reference value: 48.87%); type: functional
[12] = test system: Epidermal growth factor receptor (Homo sapiens), P00533 [L858R,T790M]; assay: Inhibition of EGF-induced EGFR L858R/T790M double mutant phosphorylation at Tyrosine residue in human NCI-H1975 cells preincubated for 2 hrs followed by EGF stimulation measured after 10 mins by Western blot analysis; type: cell-based
A549 [13] = assay: Cell cycle arrest in human A549 cells assessed as accumulation at G2/M phase at 0.5 uM after 48 hrs by propidium iodide satining based FACS analysis (reference value: 16.09%); type: functional
A549 [14] = assay: Cell cycle arrest in human A549 cells assessed as accumulation at G2/M phase at 2 uM after 48 hrs by propidium iodide satining based FACS analysis (reference value: 16.09%); type: functional
A549 [15] = assay: Cell cycle arrest in human A549 cells assessed as accumulation at S phase at 5 uM after 48 hrs by propidium iodide satining based FACS analysis (reference value: 34.45%); type: functional
A549 [16] = assay: Cell cycle arrest in human A549 cells assessed as accumulation at G0/G1 phase at 1 uM after 48 hrs by propidium iodide satining based FACS analysis (reference value: 48.87%); type: functional
SW480 = assay: Antiproliferative activity against human SW480 cells harboring wild type EGFR after 72 hrs by MTT assay; type: functional, cell-based; conditions: SW480, 72 h
[17] = molecular target: T1, Epidermal growth factor receptor; conditions: A549, at 5 µM
Description: Inhibition of EGF-induced EGFR phosphorylation at Y992 residue in human A549 cells at 5 uM preincubated for 2 hrs followed by EGF stimulation measured after 10 mins by Western blot analysis

A-431 = assay: Antiproliferative activity against human A431 cells harboring wild type EGFR after 72 hrs by MTT assay; type: functional, cell-based; conditions: A-431, 72 h
[18] = test system: Epidermal growth factor receptor (Homo sapiens), P00533 [L858R,T790M]; assay: Inhibition of EGF-induced EGFR L858R/T790M double mutant activation in human NCI-H1975 cells assessed as reduction in STAT3 phosphorylation at Y705 residue at 5 uM preincubated for 2 hrs followed by EGF stimulation measured after 10 mins by Western blot analysis; type: cell-based
A549 [19] = assay: Cell cycle arrest in human A549 cells assessed as accumulation at S phase at 1 uM after 48 hrs by propidium iodide satining based FACS analysis (reference value: 34.45%); type: functional
A549 [20] = assay: Induction of apoptosis in human A549 cells assessed as late apoptotic cells at 4 uM after 48 hrs by Annexin V-FITC/propidium iodide satining based FACS analysis (reference value: 1.21%); type: functional
[21] = molecular target: T1, Epidermal growth factor receptor; conditions: A549, at 5 µM; remark: listed apart in the source
Description: Inhibition of EGF-induced EGFR phosphorylation at Tyrosine residue in human A549 cells at 5 uM preincubated for 2 hrs followed by EGF stimulation measured after 10 mins by Western blot analysis

A549 [22] = assay: Induction of apoptosis in human A549 cells assessed as viable cells at 1 uM after 48 hrs by Annexin V-FITC/propidium iodide satining based FACS analysis (reference value: 95.87%); type: functional; conditions: A549, 48 h, read-out: Activity
A549 [23] = assay: Induction of apoptosis in human A549 cells assessed as necrotic cells at 1 uM after 48 hrs by Annexin V-FITC/propidium iodide satining based FACS analysis (reference value: 0.14%); type: functional
A549 [24] = assay: Induction of apoptosis in human A549 cells assessed as viable cells at 3 uM after 48 hrs by Annexin V-FITC/propidium iodide satining based FACS analysis (reference value: 95.87%); type: functional; conditions: A549, 48 h, read-out: Activity
A549 [25] = assay: Cell cycle arrest in human A549 cells after 48 hrs by propidium iodide satining based FACS analysis; type: functional

T1 sequence (P00533 whole entry): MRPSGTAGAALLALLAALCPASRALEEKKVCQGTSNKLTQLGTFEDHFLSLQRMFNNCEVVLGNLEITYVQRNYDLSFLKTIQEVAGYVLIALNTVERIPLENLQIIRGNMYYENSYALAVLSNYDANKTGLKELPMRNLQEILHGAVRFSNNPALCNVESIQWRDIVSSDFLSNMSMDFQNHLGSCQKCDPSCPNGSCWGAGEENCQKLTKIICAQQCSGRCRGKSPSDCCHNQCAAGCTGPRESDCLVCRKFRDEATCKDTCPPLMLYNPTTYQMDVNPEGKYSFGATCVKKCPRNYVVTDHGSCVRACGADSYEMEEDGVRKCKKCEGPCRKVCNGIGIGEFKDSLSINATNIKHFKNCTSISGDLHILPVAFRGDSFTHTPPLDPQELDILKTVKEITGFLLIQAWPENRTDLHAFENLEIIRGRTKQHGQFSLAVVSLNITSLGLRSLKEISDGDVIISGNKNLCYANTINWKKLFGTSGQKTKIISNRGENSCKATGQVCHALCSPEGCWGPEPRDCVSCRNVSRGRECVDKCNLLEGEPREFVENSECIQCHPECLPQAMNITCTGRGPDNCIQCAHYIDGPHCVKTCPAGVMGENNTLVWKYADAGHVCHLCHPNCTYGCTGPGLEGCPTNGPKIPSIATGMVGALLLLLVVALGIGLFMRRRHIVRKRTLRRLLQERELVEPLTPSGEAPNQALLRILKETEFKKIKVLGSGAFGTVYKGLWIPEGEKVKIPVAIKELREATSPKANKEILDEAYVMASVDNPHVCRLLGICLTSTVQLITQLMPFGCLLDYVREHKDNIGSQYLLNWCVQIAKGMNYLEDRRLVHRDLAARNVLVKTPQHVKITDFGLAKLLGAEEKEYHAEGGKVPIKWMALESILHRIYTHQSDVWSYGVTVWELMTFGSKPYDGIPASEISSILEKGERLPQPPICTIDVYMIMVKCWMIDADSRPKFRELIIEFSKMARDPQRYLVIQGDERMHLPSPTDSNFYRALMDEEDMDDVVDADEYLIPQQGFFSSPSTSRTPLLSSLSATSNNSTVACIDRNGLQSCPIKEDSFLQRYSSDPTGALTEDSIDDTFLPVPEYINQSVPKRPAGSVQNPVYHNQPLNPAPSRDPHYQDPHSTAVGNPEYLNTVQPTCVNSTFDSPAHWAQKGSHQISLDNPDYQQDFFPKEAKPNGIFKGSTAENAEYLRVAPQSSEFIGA
Epidermal growth factor receptor (Homo sapiens), P00533 [L858R,T790M], sequence (P00533 whole entry T790M/L858R, looked up): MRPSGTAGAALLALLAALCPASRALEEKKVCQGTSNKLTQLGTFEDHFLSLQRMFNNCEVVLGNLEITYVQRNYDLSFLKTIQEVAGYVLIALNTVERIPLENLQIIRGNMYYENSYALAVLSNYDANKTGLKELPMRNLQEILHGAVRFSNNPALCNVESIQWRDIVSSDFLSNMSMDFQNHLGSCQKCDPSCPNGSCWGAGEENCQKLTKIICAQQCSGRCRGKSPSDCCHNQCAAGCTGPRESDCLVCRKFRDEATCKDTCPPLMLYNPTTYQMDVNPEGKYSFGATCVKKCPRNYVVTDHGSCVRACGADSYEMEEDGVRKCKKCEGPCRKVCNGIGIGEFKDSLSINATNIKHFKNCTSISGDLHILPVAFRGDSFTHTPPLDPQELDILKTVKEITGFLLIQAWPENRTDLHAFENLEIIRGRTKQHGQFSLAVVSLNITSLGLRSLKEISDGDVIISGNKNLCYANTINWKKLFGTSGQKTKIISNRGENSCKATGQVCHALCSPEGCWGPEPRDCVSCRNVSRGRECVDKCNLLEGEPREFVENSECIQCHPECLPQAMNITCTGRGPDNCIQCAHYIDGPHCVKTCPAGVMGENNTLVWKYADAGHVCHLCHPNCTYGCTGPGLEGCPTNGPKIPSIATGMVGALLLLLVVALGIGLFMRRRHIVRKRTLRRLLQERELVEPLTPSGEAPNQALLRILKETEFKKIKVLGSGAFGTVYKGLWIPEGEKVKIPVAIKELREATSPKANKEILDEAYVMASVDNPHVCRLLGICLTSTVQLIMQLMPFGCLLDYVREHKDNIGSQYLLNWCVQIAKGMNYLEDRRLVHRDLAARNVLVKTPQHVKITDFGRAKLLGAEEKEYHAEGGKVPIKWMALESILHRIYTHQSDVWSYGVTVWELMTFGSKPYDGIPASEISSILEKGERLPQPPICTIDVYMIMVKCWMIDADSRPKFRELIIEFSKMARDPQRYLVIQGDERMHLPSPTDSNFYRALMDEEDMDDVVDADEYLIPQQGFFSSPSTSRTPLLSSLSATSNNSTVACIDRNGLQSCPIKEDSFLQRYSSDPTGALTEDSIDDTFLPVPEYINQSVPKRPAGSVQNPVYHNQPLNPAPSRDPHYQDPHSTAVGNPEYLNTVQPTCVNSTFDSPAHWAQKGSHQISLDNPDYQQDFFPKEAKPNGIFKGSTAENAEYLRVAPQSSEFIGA
Epidermal growth factor receptor (Homo sapiens, UniProt P00533, L858R), sequence (P00533 25-1210 L858R limits assumed): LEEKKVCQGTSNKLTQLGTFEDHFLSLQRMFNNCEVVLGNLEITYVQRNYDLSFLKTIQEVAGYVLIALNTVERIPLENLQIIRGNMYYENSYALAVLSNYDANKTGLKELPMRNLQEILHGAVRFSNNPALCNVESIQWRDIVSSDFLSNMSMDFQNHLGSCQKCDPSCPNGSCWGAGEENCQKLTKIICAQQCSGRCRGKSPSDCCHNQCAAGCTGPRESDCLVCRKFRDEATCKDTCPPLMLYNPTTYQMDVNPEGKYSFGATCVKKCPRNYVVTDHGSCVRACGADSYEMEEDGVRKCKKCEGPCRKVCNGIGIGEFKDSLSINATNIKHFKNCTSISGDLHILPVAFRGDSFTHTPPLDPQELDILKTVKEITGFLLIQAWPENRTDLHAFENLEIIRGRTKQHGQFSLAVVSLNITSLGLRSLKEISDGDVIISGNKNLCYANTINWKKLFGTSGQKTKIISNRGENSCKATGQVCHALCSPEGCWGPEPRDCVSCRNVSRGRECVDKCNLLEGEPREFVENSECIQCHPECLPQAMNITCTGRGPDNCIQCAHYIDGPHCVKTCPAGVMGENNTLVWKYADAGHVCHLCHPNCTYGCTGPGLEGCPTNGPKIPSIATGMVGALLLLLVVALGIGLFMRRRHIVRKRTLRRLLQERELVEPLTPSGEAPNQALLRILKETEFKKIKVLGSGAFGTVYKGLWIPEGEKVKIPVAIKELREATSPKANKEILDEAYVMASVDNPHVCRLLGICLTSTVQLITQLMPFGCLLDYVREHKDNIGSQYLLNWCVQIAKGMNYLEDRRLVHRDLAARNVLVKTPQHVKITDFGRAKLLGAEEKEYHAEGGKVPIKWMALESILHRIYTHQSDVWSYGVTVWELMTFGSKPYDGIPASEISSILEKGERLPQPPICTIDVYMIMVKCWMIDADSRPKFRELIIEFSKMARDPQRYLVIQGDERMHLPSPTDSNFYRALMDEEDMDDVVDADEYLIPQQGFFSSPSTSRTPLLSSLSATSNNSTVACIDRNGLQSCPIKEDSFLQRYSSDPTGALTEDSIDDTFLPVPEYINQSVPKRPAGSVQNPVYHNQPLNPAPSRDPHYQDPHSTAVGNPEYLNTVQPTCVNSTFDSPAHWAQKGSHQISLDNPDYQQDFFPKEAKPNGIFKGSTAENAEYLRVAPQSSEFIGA

IC50 [2]: 323 nM
IC50 (A549 [4]): 1650 nM
inhibition [10]: Active
inhibition [12]: Dose-dependent effect
IC50 (SW480): 3270 nM
inhibition [17]: Active
IC50 (A-431): 1310 nM
inhibition [18]: inactive
inhibition [21]: Active
SMILES: Fc1cccc(COc2ccc(Nc3ncnc4cc(OCCCN5CCOCC5)c(OCCCN5CCOCC5)cc34)cc2Cl)c1
Activity (A549 [1]): 4.46%
Activity (A549 [3]): Dose-dependent effect
Activity (A549 [5]): 7.37%
Activity (A549 [6]): 0.57%
Activity (A549 [7]): 3.9%
Activity (A549 [8]): 8.5%
Activity (A549 [9]): Non-Toxic
Activity (A549 [11]): 50.78%
Activity (A549 [13]): 14.96%
Activity (A549 [14]): 10.56%
Activity (A549 [15]): 17.61%
Activity (A549 [16]): 52.91%
Activity (A549 [19]): 34.83%
Activity (A549 [20]): 36.18%
viability at 1 µM (A549 [22]): 92.3%
Activity (A549 [23]): 0.4%
viability at 3 µM (A549 [24]): 82.8%
Activity (A549 [25]): Dose-dependent effect
